# According to US20140155376A1, “PYRROLOPYRAZINE KINASE INHIBITORS” (Hoffmann-La Roche Inc., priority 2010, published 2014):
# Biological target: T1, JAK3 (recombinant human kinase domain; h-jak3(810-1124)) (Homo sapiens, UniProt P52333)
# T1 construct: h-jak3(810- 1124)-sf9-c; made in house; host or cells: Sf9 insect cells
# Test: Determination of IC50 of Janus Kinase (JAK) inhibition: JAK3, radioactive end-point assay with 33P-ATP
# Format: biochemical
# Conditions: JAK3 kinase domain; ATP 1.5 uM, peptide 50 uM, 20 minutes, room temperature, 10% DMSO; read-out: Ic50 h-jak3(810-1124)-sf9-c:no additive
# T1 sequence (P52333 810-1124): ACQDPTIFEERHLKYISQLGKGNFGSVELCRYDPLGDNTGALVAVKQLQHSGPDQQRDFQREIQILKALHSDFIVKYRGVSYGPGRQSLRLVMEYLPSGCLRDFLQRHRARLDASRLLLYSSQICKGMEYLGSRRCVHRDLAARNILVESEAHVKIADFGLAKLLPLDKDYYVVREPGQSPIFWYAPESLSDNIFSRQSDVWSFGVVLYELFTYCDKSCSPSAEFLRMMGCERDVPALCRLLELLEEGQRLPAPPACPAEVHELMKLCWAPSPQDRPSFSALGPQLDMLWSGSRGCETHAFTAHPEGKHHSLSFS
row,Compound,IC50 [nM]
1,"CC1CCCC(C)N1C(=O)c1ccc(-c2cnc3[nH]cc(C(=O)N[C@@H](C)C(C)(C)C)c3n2)s1 (stereo partly drawn) [Example I-181, 2-[5-(2,6-Dimethyl-piperidine-1-carbonyl)-thiophen-2-yl]-5H-pyrrolo[2,3-b]pyrazine-7-carboxylic acid ((S)-1,2,2-trimethyl-propyl)-amide]",0.62
2,"CC(C)(CO)CNC(=O)c1c[nH]c2ncc(N3CCCC3)nc12 [Example I-10, 2-Pyrrolidin-1-yl-5H-pyrrolo[2,3-b]pyrazine-7-carboxylic acid (3-hydroxy-2,2-dimethyl-propyl)-amide]",34.3
3,"C[C@@H](CO)NC(=O)c1c[nH]c2ncc(C3CC3)nc12 [Example I-57, 2-Cyclopropyl-5H-pyrrolo[2,3-b]pyrazine-7-carboxylic acid ((S)-2-hydroxy-1-methyl-ethyl)-amide]",217
4,"C[C@@H](NC(=O)c1c[nH]c2ncc(C#N)nc12)C(C)(C)O [Example I-115, 2-Cyano-5H-pyrrolo[2,3-b]pyrazine-7-carboxylic acid ((R)-2-hydroxy-1,2-dimethyl-propyl)-amide]",3300
5,"CCNC(=O)c1c[nH]c2ncc(Oc3ccccc3Cl)nc12 [Example I-265, 2-(2-Chloro-phenoxy)-5H-pyrrolo[2,3-b]pyrazine-7-carboxylic acid ethylamide]",1100
6,"C[C@H](Cc1ccccc1)NC(=O)c1ccc(-c2cnc3[nH]cc(C(=O)N[C@@H](C)C(C)(C)C)c3n2)s1 [Example I-170, 2-[5-((R)-1-Methyl-2-phenyl-ethylcarbamoyl)-thiophen-2-yl]-5H-pyrrolo[2,3-b]pyrazine-7-carboxylic acid ((S)-1,2,2-trimethyl-propyl)-amide]",0.58
7,"C[C@H](NC(=O)c1c[nH]c2ncc(-c3ccc(C(=O)NCc4c(F)cccc4Cl)s3)nc12)C(C)(C)C [Example I-189, 2-[5-(2-Chloro-6-fluoro-benzylcarbamoyl)-thiophen-2-yl]-5H-pyrrolo[2,3-b]pyrazine-7-carboxylic acid ((S)-1,2,2-trimethyl-propyl)-amide]",0.6
8,"C[C@H](NC(=O)c1c[nH]c2ncc(-c3cccs3)nc12)C(C)(C)O [Example I-18, 2-Thiophen-2-yl-5H-pyrrolo[2,3-b]pyrazine-7-carboxylic acid ((S)-2-hydroxy-1,2-dimethyl-propyl)-amide]",3.05
9,"CC(Cc1ccccn1)NC(=O)c1ccc(-c2cnc3[nH]cc(C(=O)N[C@@H](C)C(C)(C)C)c3n2)s1 (stereo partly drawn) [Example I-176, 2-[5-(1-Methyl-2-pyridin-2-yl-ethylcarbamoyl)-thiophen-2-yl]-5H-pyrrolo[2,3-b]pyrazine-7-carboxylic acid ((S)-1,2,2-trimethyl-propyl)-amide]",0.46
10,"C[C@@H](NC(=O)c1c[nH]c2ncc(-c3nccs3)nc12)C(C)(C)O [Example I-111, 2-Thiazol-2-yl-5H-pyrrolo[2,3-b]pyrazine-7-carboxylic acid ((R)-2-hydroxy-1,2-dimethyl-propyl)-amide]",276
11,"Cc1ccc(CNC(=O)c2ccc(-c3cnc4[nH]cc(C(=O)N[C@@H](C)C(C)(C)C)c4n3)s2)cc1 [Example I-184, 2-[5-(4-Methyl-benzylcarbamoyl)-thiophen-2-yl]-5H-pyrrolo[2,3-b]pyrazine-7-carboxylic acid ((S)-1,2,2-trimethyl-propyl)-amide]",0.32
12,"Cc1ncccc1Oc1cnc2[nH]cc(C(=O)NC(C)C)c2n1 [Example I-280, 2-(2-Methyl-pyridin-3-yloxy)-5H-pyrrolo[2,3-b]pyrazine-7-carboxylic acid isopropylamide]",3980
13,"C[C@H](NC(=O)c1c[nH]c2ncc(C3CC3)nc12)C1CCCCC1 [Example I-32, 2-Cyclopropyl-5H-pyrrolo[2,3-b]pyrazine-7-carboxylic acid ((S)-1-cyclohexyl-ethyl)-amide]",20.1
14,"CCC(=O)N[C@@H]1CCc2ccc(Oc3cnc4[nH]cc(C(=O)NC(C)C)c4n3)cc21 [Example I-282, 2-((R)-3-Propionylamino-indan-5-yloxy)-5H-pyrrolo[2,3-b]pyrazine-7-carboxylic acid isopropylamide]",125
15,"CC(C)NC(=O)c1c[nH]c2ncc(Oc3cccc4[nH]ccc34)nc12 [Example I-274, 2-(1H-Indol-4-yloxy)-5H-pyrrolo[2,3-b]pyrazine-7-carboxylic acid isopropylamide]",353
16,"CC(C)(C)[C@@H](CC#N)NC(=O)c1c[nH]c2ncc(C3CC3)nc12 [Example I-76, 2-Cyclopropyl-5H-pyrrolo[2,3-b]pyrazine-7-carboxylic acid ((R)-1-cyanomethyl-2,2-dimethyl-propyl)-amide]",132
17,"CN(C)c1cnc2[nH]cc(C(=O)NCC(C)(C)CO)c2n1 [Example I-4, 2-Dimethylamino-5H-pyrrolo[2,3-b]pyrazine-7-carboxylic acid (3-hydroxy-2,2-dimethyl-propyl)-amide]",34.9
18,"C#CCNC(=O)c1ccc(-c2cnc3[nH]cc(C(=O)N[C@@H](C)C(C)(C)C)c3n2)s1 [Example I-198, 2-(5-Prop-2-ynylcarbamoyl-thiophen-2-yl)-5H-pyrrolo[2,3-b]pyrazine-7-carboxylic acid ((S)-1,2,2-trimethyl-propyl)-amide]",0.54

row,Compound,IC50 [nM]
1,"CC(C)NC(=O)c1c[nH]c2ncc(Oc3ccccc3C(F)(F)F)nc12 [Example I-236, 2-(2-Trifluoromethyl-phenoxy)-5H-pyrrolo[2,3-b]pyrazine-7-carboxylic acid isopropylamide]",2960
2,"CCNC(=O)c1c[nH]c2ncc(Oc3ccccc3)nc12 [Example I-131, 2-Phenoxy-5H-pyrrolo[2,3-b]pyrazine-7-carboxylic acid ethylamide]",1030
3,"C[C@H](NC(=O)c1c[nH]c2ncc(-c3ccc(C(=O)NCc4ccccc4)s3)nc12)C(C)(C)C [Example I-226, 2-(5-Benzylcarbamoyl-thiophen-2-yl)-5H-pyrrolo[2,3-b]pyrazine-7-carboxylic acid ((S)-1,2,2-trimethyl-propyl)-amide]",0.5
4,"C[C@H](NC(=O)c1c[nH]c2ncc(-c3cnn(C)c3)nc12)C(C)(C)C#N [Example I-139, 2-(1-Methyl-1H-pyrazol-4-yl)-5H-pyrrolo[2,3-b]pyrazine-7-carboxylic acid ((S)-2-cyano-1,2,2-trimethyl-ethyl)-amide]",0.55
5,"C[C@H](NC(=O)c1c[nH]c2ncc(-c3ccc(C(=O)N4CCS(=O)(=O)CC4)s3)nc12)C(C)(C)C [Example I-213, 2-[5-(1,1-Dioxo-1λ^6-thiomorpholine-4-carbonyl)-thiophen-2-yl]-5H-pyrrolo[2,3-b]pyrazine-7-carboxylic acid ((S)-1,2,2-trimethyl-propyl)-amide]",0.11
6,"C[C@@H](NC(=O)c1c[nH]c2ncc(Oc3ccccc3)nc12)C1CCCCC1 [Example I-129, 2-Phenoxy-5H-pyrrolo[2,3-b]pyrazine-7-carboxylic acid ((R)-1-cyclohexyl-ethyl)-amide]",222
7,"CC(C)NC(=O)c1c[nH]c2ncc(Oc3ccc4c(c3)[C@H](NC(=O)c3ccccc3)CC4)nc12 [Example I-286, 2-((R)-3-Benzoylamino-indan-5-yloxy)-5H-pyrrolo[2,3-b]pyrazine-7-carboxylic acid isopropylamide]",152
8,"CCNC(=O)c1c[nH]c2ncc(Oc3cccc4[nH]ccc34)nc12 [Example I-275, 2-(1H-Indol-4-yloxy)-5H-pyrrolo[2,3-b]pyrazine-7-carboxylic acid ethylamide]",626
9,"C[C@@H](NC(=O)c1c[nH]c2ncc(C3=CCOCC3)nc12)C(C)(C)O [Example I-110, 2-(3,6-Dihydro-2H-pyran-4-yl)-5H-pyrrolo[2,3-b]pyrazine-7-carboxylic acid ((R)-2-hydroxy-1,2-dimethyl-propyl)-amide]",45.4
10,"CCNC(=O)c1c[nH]c2ncc(Oc3ccccc3C)nc12 [Example I-257, 2-o-Tolyloxy-5H-pyrrolo[2,3-b]pyrazine-7-carboxylic acid ethylamide]",2740
11,"C[C@H](CO)NC(=O)c1ccc(-c2cnc3[nH]cc(C(=O)N[C@@H](C)C(C)(C)C)c3n2)s1 [Example I-169, 2-[5-((R)-2-Hydroxy-1-methyl-ethylcarbamoyl)-thiophen-2-yl]-5H-pyrrolo[2,3-b]pyrazine-7-carboxylic acid ((S)-1,2,2-trimethyl-propyl)-amide]",0.29
12,"CCNC(=O)c1c[nH]c2ncc(Oc3cccc(CC)c3)nc12 [Example I-249, 2-(3-Ethyl-phenoxy)-5H-pyrrolo[2,3-b]pyrazine-7-carboxylic acid ethylamide]",1590
13,"CCNC(=O)c1c[nH]c2ncc(Oc3cccc(OC)c3)nc12 [Example I-264, 2-(3-Methoxy-phenoxy)-5H-pyrrolo[2,3-b]pyrazine-7-carboxylic acid ethylamide]",810
14,"CC(Cc1ccc(F)cc1)NC(=O)c1ccc(-c2cnc3[nH]cc(C(=O)N[C@@H](C)C(C)(C)C)c3n2)s1 (stereo partly drawn) [Example I-159, 2-{5-[2-(4-Fluoro-phenyl)-1-methyl-ethylcarbamoyl]-thiophen-2-yl}-5H-pyrrolo[2,3-b]pyrazine-7-carboxylic acid ((S)-1,2,2-trimethyl-propyl)-amide]",0.53
15,"C[C@@H](NC(=O)c1c[nH]c2ncc(C3CC3)nc12)[C@](C)(O)CC#N [Example I-91, 2-Cyclopropyl-5H-pyrrolo[2,3-b]pyrazine-7-carboxylic acid ((1R,2R)-3-cyano-2-hydroxy-1,2-dimethyl-propyl)-amide]",38.7
16,"COc1cccc(Oc2cnc3[nH]cc(C(=O)NC(C)C)c3n2)c1 [Example I-229, 2-(3-Methoxy-phenoxy)-5H-pyrrolo[2,3-b]pyrazine-7-carboxylic acid isopropylamide]",184
17,"CC(C)NC(=O)c1c[nH]c2ncc(Oc3cccc(C(C)C)c3)nc12 [Example I-234, 2-(3-Isopropyl-phenoxy)-5H-pyrrolo[2,3-b]pyrazine-7-carboxylic acid isopropylamide]",980
